Tested on: male and female Sprague–Dawley rats
Test: 90-day subchronic oral gavage toxicity study
Assay type: in vivo, rat
Set-up: key to NOEL, absolute liver weight increase / LOEL, absolute liver weight increase / NOEL, relative kidney weight increase / LOEL, relative kidney weight increase / NOEL, absolute kidney weight increase / LOEL, absolute kidney weight increase / NOEL, relative liver weight increase / LOEL, relative liver weight increase: NR: no response, no statistically significant dose-dependent changes
Summary of the method: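 Rats dosed daily by oral gavage in corn oil (3 mL/kg) for 90 days, five dose levels plus control, n = 10/sex/group, euthanized SD 91. Endpoints: clinical observation, bodyweight, feed intake, FOB/locomotor activity, ophthalmology, terminal hematology, serum chemistry, coagulation, plasma parent PFAS, organ weights, histopathology. Groups vs control by ANOVA/Dunnett's (p<0.05).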

FC(F)(F)C(F)(F)C(F)(F)C(F)(F)CCI [PFHI, 1H,1H,2H,2H-Perfluorohexyl iodide]
Bodyweight (BW) and bodyweight gain (90-day, both sexes, all doses): None in females; dose-dependent reduced BW changes in males in all the dose groups, but BW gain on SDs 1-90 was not significantly affected
Clinical observations (90-day, both sexes, all doses): None
Coagulation endpoints (90-day, both sexes, all doses): Dose-dependent minimal prolongations in PT (in males at ≥12.5 mg/kg-day and in females at ≥25 mg/kg-day
Feed consumption (90-day, both sexes, all doses): No changes in males; increased feed consumption in females at 25, 50, and 100 mg/kg-day but not at 200 mg/kg-day
Functional observational battery (90-day, both sexes, all doses): No changes
Gross lesions (90-day, both sexes, all doses): None considered as PFHI related
Hematology (90-day, both sexes, all doses): Minimal decreases in reticulocytes in males at ≥50 mg/kg-day; minimal increases in MPV in females and sporadically in males at 200 mg/kg-day and in both sexes at 50 and 100 mg/kg-day
Histopathology (90-day, both sexes, all doses): The kidney and liver ^5 of males at ≥100 mg/kg-day and the liver of females at 200 mg/kg-day
Locomotor activity (90-day, both sexes, all doses): No effects
Morbidity and mortality (90-day, both sexes, all doses): None
Ophthalmology (90-day, both sexes, all doses): No ocular lesions
Organ weight changes (90-day, both sexes, all doses): Mean absolute and/or relative dose-dependent organ weight increases in the liver of females at ≥100 mg/kg-day and males at ≥25 mg/kg-day and kidney weight increases only in males at ≥100 mg/kg-day ^5
BMD10, absolute liver weight increase (female): 57.8 mg/kg-day
BMDL, absolute liver weight increase (female): 8.1 mg/kg-day
LOEL, absolute kidney weight increase (female): NR
LOEL, absolute liver weight increase (female): 200 mg/kg-day
LOEL, relative kidney weight increase (female): NR
LOEL, relative liver weight increase (female): 100 mg/kg-day
NOEL, absolute kidney weight increase (female): NR
NOEL, absolute liver weight increase (female): 100 mg/kg-day
NOEL, relative kidney weight increase (female): NR
NOEL, relative liver weight increase (female): 50 mg/kg-day
% BW Gain (female, 12.5 mg/kg-day): 61.51%
% Diff, % BW Gain (female, 12.5 mg/kg-day): 1.61%
% Diff, Total BW change (female, 12.5 mg/kg-day): 1.06%
% Diff, Total Food Consumed (female, 12.5 mg/kg-day): 0.12%
A/G (female, 12.5 mg/kg-day): 1.09±0.05 ratio
ALB (female, 12.5 mg/kg-day): 4.28 ± 0.37 g/dL
ALPi (female, 12.5 mg/kg-day): 42.8±13.0 U/L
APTT (female, 12.5 mg/kg-day): 18.80 s
BUN (female, 12.5 mg/kg-day): 16.8 ± 2.7 mg/dL
CHOL (female, 12.5 mg/kg-day): 110.5 ± 32.7 mg/dL
GLOB (female, 12.5 mg/kg-day): 3.94 ± 0.25 g/dL
GLUC (female, 12.5 mg/kg-day): 138.0 ± 29.9 mg/dL
HCT (female, 12.5 mg/kg-day): 46.90±1.85%
HGB (female, 12.5 mg/kg-day): 14.91 ± 0.54 g/dL
Kidney Weight (female, 12.5 mg/kg-day): 1.83 g
Kidney/Body Weight (female, 12.5 mg/kg-day): 0.58%
Kidney/Brain Weight (female, 12.5 mg/kg-day): 89.5%
Liver Weight (female, 12.5 mg/kg-day): 8.53 g
Liver/Body Weight (female, 12.5 mg/kg-day): 2.68%
Liver/Brain Weight (female, 12.5 mg/kg-day): 416%
MPV (female, 12.5 mg/kg-day): 7.10 ± 0.30 fL
PT (female, 12.5 mg/kg-day): 13.34 s
Total BW change (female, 12.5 mg/kg-day): 124.60 g
Total Food Consumed (female, 12.5 mg/kg-day): 1474 g
% BW Gain (female, 25 mg/kg-day): 60.67%
% Diff, % BW Gain (female, 25 mg/kg-day): 0.22%
% Diff, Total BW change (female, 25 mg/kg-day): 1.70%
% Diff, Total Food Consumed (female, 25 mg/kg-day): 7.27%
A/G (female, 25 mg/kg-day): 1.07±0.11 ratio
ALB (female, 25 mg/kg-day): 4.02 ± 0.39 g/dL
ALPi (female, 25 mg/kg-day): 54.9±21.9 U/L
APTT (female, 25 mg/kg-day): 18.59 s
BUN (female, 25 mg/kg-day): 16.2 ± 2.1 mg/dL
CHOL (female, 25 mg/kg-day): 114.9 ± 14.1 mg/dL
GLOB (female, 25 mg/kg-day): 3.78 ± 0.16 g/dL
GLUC (female, 25 mg/kg-day): 153.4 ± 30.6 mg/dL
HCT (female, 25 mg/kg-day): 48.01±1.96%
HGB (female, 25 mg/kg-day): 15.38 ± 0.54 g/dL
Kidney Weight (female, 25 mg/kg-day): 1.83 g
Kidney/Body Weight (female, 25 mg/kg-day): 0.57%
Kidney/Brain Weight (female, 25 mg/kg-day): 88.2%
Liver Weight (female, 25 mg/kg-day): 8.66 g
Liver/Body Weight (female, 25 mg/kg-day): 2.71%
Liver/Brain Weight (female, 25 mg/kg-day): 417%
MPV (female, 25 mg/kg-day): 7.32 ± 0.30 fL
PT (female, 25 mg/kg-day): 13.51 s
Total BW change (female, 25 mg/kg-day): 125.38 g
Total Food Consumed (female, 25 mg/kg-day): 1579 g
% BW Gain (female, 50 mg/kg-day): 65.42%
% Diff, % BW Gain (female, 50 mg/kg-day): 8.07%
% Diff, Total BW change (female, 50 mg/kg-day): 7.25%
% Diff, Total Food Consumed (female, 50 mg/kg-day): 8.31%
A/G (female, 50 mg/kg-day): 1.09±0.09 ratio
ALB (female, 50 mg/kg-day): 4.27 ± 0.46 g/dL
ALPi (female, 50 mg/kg-day): 43.7±5.5 U/L
APTT (female, 50 mg/kg-day): 20.46 s
BUN (female, 50 mg/kg-day): 15.7 ± 2.2 mg/dL
CHOL (female, 50 mg/kg-day): 119.7 ± 25.4 mg/dL
GLOB (female, 50 mg/kg-day): 3.91 ± 0.26 g/dL
GLUC (female, 50 mg/kg-day): 157.1 ± 16.7 mg/dL
HCT (female, 50 mg/kg-day): 47.80±2.45%
HGB (female, 50 mg/kg-day): 15.23 ± 0.72 g/dL
Kidney Weight (female, 50 mg/kg-day): 1.85 g
Kidney/Body Weight (female, 50 mg/kg-day): 0.57%
Kidney/Brain Weight (female, 50 mg/kg-day): 93.9%
Liver Weight (female, 50 mg/kg-day): 8.92 g
Liver/Body Weight (female, 50 mg/kg-day): 2.76%
Liver/Brain Weight (female, 50 mg/kg-day): 454%
MPV (female, 50 mg/kg-day): 7.47 ± 0.44 fL
PT (female, 50 mg/kg-day): 13.48 s
Total BW change (female, 50 mg/kg-day): 132.23 g
Total Food Consumed (female, 50 mg/kg-day): 1595 g
% BW Gain (female, 100 mg/kg-day): 62.41%
% Diff, % BW Gain (female, 100 mg/kg-day): 3.09%
% Diff, Total BW change (female, 100 mg/kg-day): 5.03%
% Diff, Total Food Consumed (female, 100 mg/kg-day): 13.5%
A/G (female, 100 mg/kg-day): 1.08±0.06 ratio
ALB (female, 100 mg/kg-day): 4.32 ± 0.36 g/dL
ALPi (female, 100 mg/kg-day): 49.7±18.4 U/L
APTT (female, 100 mg/kg-day): 17.57 s
BUN (female, 100 mg/kg-day): 16.7 ± 2.6 mg/dL
CHOL (female, 100 mg/kg-day): 122.7 ± 15.6 mg/dL
GLOB (female, 100 mg/kg-day): 4.00 ± 0.27 g/dL
GLUC (female, 100 mg/kg-day): 153.8 ± 19.2 mg/dL
HCT (female, 100 mg/kg-day): 46.45±1.01%
HGB (female, 100 mg/kg-day): 14.77 ± 0.32 g/dL
Kidney Weight (female, 100 mg/kg-day): 1.84 g
Kidney/Body Weight (female, 100 mg/kg-day): 0.58%
Kidney/Brain Weight (female, 100 mg/kg-day): 89.7%
Liver Weight (female, 100 mg/kg-day): 9.17 g
Liver/Body Weight (female, 100 mg/kg-day): 2.85%
Liver/Brain Weight (female, 100 mg/kg-day): 447%
MPV (female, 100 mg/kg-day): 7.34 ± 0.51 fL
PT (female, 100 mg/kg-day): 13.79 s
Total BW change (female, 100 mg/kg-day): 129.49 g
Total Food Consumed (female, 100 mg/kg-day): 1671 g
% BW Gain (female, 200 mg/kg-day): 53.53%
% Diff, % BW Gain (female, 200 mg/kg-day): -11.58%
% Diff, Total BW change (female, 200 mg/kg-day): -11.94%
% Diff, Total Food Consumed (female, 200 mg/kg-day): 6.33%
A/G (female, 200 mg/kg-day): 1.15±0.03 ratio
ALB (female, 200 mg/kg-day): 4.69 ± 0.33 g/dL
ALPi (female, 200 mg/kg-day): 46.9±15.3 U/L
APTT (female, 200 mg/kg-day): 19.34 s
BUN (female, 200 mg/kg-day): 18.0 ± 3.3 mg/dL
CHOL (female, 200 mg/kg-day): 154.8 ± 35.9 mg/dL
GLOB (female, 200 mg/kg-day): 4.10 ± 0.33 g/dL
GLUC (female, 200 mg/kg-day): 155.2 ± 21.4 mg/dL
HGB (female, 200 mg/kg-day): 14.58 ± 0.80 g/dL
Kidney Weight (female, 200 mg/kg-day): 1.83 g
Kidney/Body Weight (female, 200 mg/kg-day): 0.61%
Kidney/Brain Weight (female, 200 mg/kg-day): 91.3%
Liver Weight (female, 200 mg/kg-day): 9.65 g
Liver/Body Weight (female, 200 mg/kg-day): 3.20%
